Values of other authors, collected in US12653891B2, “Stable glucocorticoid formulation” (AVM Biotechnology, LLC, priority 2018, dated 2026).
Counter-ions that a name gives are not always drawn. Like-named read-outs stand apart in the source and are kept apart here.

Legend:
[1] = not given; remark: listed apart in the source

Threshold (EMA/CHMP/334655/2013) (5 years up to 17 years and adults) [mg/kg]	Threshold (EMA/CHMP/334655/2013) (29 days up to 4 years) [mg/kg]	Threshold (EMA/CHMP/334655/2013) (neonates up to 28 days) [mg/kg]	Solubility in alcohol ([1]; alcohol)	Solubility in chloroform and ether ([1]; chloroform and ether)	Solubility in dioxan ([1]; dioxan)	SMILES	Amount that can accumulate and cause lactic acidosis, CNS depression, coma, hypoglycemia, seizures, hemolysis (IV) [g/day]
500	50	1				CC(O)CO (stereo not shown) [Propylene glycol]	≥ 3
			slightly soluble	practically insoluble	very slightly soluble	C[C@@H]1C[C@H]2[C@@H]3CCC4=CC(=O)C=C[C@]4(C)[C@@]3(F)[C@@H](O)C[C@]2(C)[C@@]1(O)C(=O)COP(=O)(O)O [Dexamethasone phosphate (as sodium), 9-fluoro-11b,17,21-trihydroxy-16a-methylpregna-1,4-diene-3,20-dione 21-(dihydrogen phosphate) Disodium Salt]	
